Source: US20120088803A1, “CONTROL AGENT FOR SOFT ROT AND CONTROL METHOD FOR THE SAME” (Ishihara Sangyo Kaisha, Ltd, priority 2009, published 2012)
Several values for one entry are separate records, joined by “and”; a condition that tells them apart may be missing. Equal values may be shown once.

Columns and labels:
Chinese cabbage soft rot [1] = experiment: Test for disease control of Chinese cabbage, field (Example 1 / Comparative Example 1); assay type: in vivo, Erwinia carotovora; parameters: key to Disease incidence rate: % of examined plants that are diseased; key to Disease control value: (1 − severity treated/severity untreated) × 100; key to Disease severity: Σ(plants per class × index 0–4)/(plants examined × 4) × 100; settings: for Disease incidence rate / Disease severity / Disease control value: 63 days; for Disease control value: vs untreated plot; for Control effect on Chinese cabbage soft rot (in words): Table 1 test, moderate incidence conditions, fluazinam 250 g ai/10 a on soil, streptomycin 1/1000 foliage spraying
Method: Preparation was performed using 500 g/L of 3-chloro-N-(3-chloro-5-trifluoromethyl-2-pyridyl)-alpha,alpha,alpha-trifluoro-2,6-dinit ro-p-toluidine (fluazinam (common name), Frowncide SC (trade name), manufactured by Ishihara Sangyo Kaisha, Ltd.) such that the amount of the active ingredient was 250 g ai/10 a (500 mL product/10 a), and the amount of dilution water was 150 L/10 a.
The spray solution prepared in the above was sprayed onto cultivation soil in a field such that the spraying amount was 0.25 g/m^2 (150 L/10 a), and thereafter, a mulch-sheet for agricultural use was spreaded on the soil. After planting holes for settlement (diameter: about 5 cm) were made, seedlings of Chinese cabbage (cultivar: Musou) grown for 4 weeks in a cell tray (128 holes/nursery box) were planted such that 30 seedlings were planted in one test plot having an area of 6 m^2 with three replications.
(§1) Preparation was performed by diluting streptomycin (Mycin 20 wettable powder (trade name), manufactured by Hokko Chemical Industry Co., Ltd.) with water to 1/1000.
(§2) In a field covered with a mulch-sheet for agricultural use, seedlings of Chinese cabbage (cultivar: Musou) grown in a cell tray were planted, in the same manner as in Example 1, and foliage application was performed by spraying the spray solution of streptomycin prepared in (1) (spraying amount per application: 200 L/10 a) twice (39 days and 47 days after the planting of the seedlings).
The degree of disease incidence was examined for all the plants in each test plot 63 days after the start of the test, and the disease incidence rate, the disease severity, and the disease control value were calculated according to the following equations, and the test results are shown in Table 1.
(§3) (Disease incidence rate)=[(number of diseased plants)/(number of plants examined)]*100
(§4) (Disease severity)={S [(number of diseased plants in each class into which the plants are classified according to the degree of disease)*(disease index)]/[(number of plants examined)*4]}*100
(§5) (Disease control value)={1-[(Disease severity in treated plot)/(Disease severity in untreated plot)]}*100
(§6) Incidentally, the evaluation criteria for the disease index are as follows. • (Disease index) • 0: No lesion • 1: Lesions appear only in part of outer leaves (shipment can be made). • 2: Lesions appear in outer leaves and part of head leaves (the damaged part is removed and shipment as a small size plant can be made, rated Grade B). • 3: Lesions appear in most head leaves or more (shipment cannot be made). • 4: Lesions appear in the entire plant and the plant dies.

Chinese cabbage soft rot [2] = experiment: Test for disease control of Chinese cabbage, field (Example 3 / Comparative example 2); assay type: in vivo, Erwinia carotovora; parameters: key to Disease incidence rate: % of examined plants diseased; key to Disease control value: (1 - severity treated/severity untreated) x 100; key to Disease severity: severity index 0-100 from disease index 0-4 weighted counts; settings: for Disease incidence rate / Disease severity / Disease control value: 54 days; for Disease control value: vs untreated plot
Text: as §3, §4, §5, §6
Preparation was performed using 500 g/L of 3-chloro-N-(3-chloro-5-trifluoromethyl-2-pyridyl)-alpha,alpha,alpha-trifluoro-2,6-dinit ro-p-toluidine (fluazinam, Frowncide SC (trade name), manufactured by Ishihara Sangyo Kaisha, Ltd.) such that the amount of the active ingredient was 62.5 g ai/10 a (125 mL product/10 a), 125 g ai/10 a (250 mL product/10 a), and 250 g ai/10 a (500 mL product/10 a), and each amount of dilution water was 150 L/10 a.
A mulch-sheet for agricultural use was spreaded on soil, and planting holes for settlement (diameter: about 9 cm) were made, and then, the spray solution prepared in the above was sprayed onto the planting holes such that the amount of treated active ingredient was 0.0625 g/m^2 (150 L/10 a) in the case of the spray solution containing the active ingredient at 62.5 g ai/10 a, 0.125 g/m^2 (150 L/10 a) in the case of the spray solution containing the active ingredient at 125 g ai/10 a, and 0.25 g/m^2 (150 L/10 a) in the case of the spray solution containing the active ingredient at 250 g ai/10 a, followed by air-drying. Then, seedlings of Chinese cabbage (cultivar: Musou) grown for 4 weeks in a cell tray (128 holes/nursery box) were planted such that 30 seedlings were planted in one test plot having an area of 6 m^2 with two replications.
as §1
as §2, with “3,” for “1,”, “300” for “200”, “three times (13 days, 20 days,” for “twice (39 days”, “27” for “47”
The degree of disease incidence was examined for all the plants in each test plot 54 days after the start of the test, and the disease severity and the disease control value were evaluated. Incidentally, the disease severity and the disease control value were obtained in the same manner as described above.

[3] = 250 g ai/10 a, 150 L/10a onto cultivation soil, Musou, Average of replications
[4] = 62.5 g ai/10 a, 150 L/10 a onto planting holes, Musou, Average
[5] = 125 g ai/10 a, 150 L/10 a onto planting holes, Musou, Average
[6] = 125 g ai/10 a, 150 L/10 a onto planting holes, Musou, single replications I-II
[7] = 250 g ai/10 a, 150 L/10 a onto planting holes, Musou, Average
[8] = 250 g ai/10 a, 150 L/10 a onto planting holes, Musou, single replications I-II
[9] = 1/1000 dilution, foliage application twice, Musou, Average of replications
[10] = 1/1000 dilution, foliage application three times, Musou, Average

O=[N+]([O-])c1cc(C(F)(F)F)c(Cl)c([N+](=O)[O-])c1Nc1ncc(C(F)(F)F)cc1Cl [Fluazinam, 3-chloro-N-(3-chloro-5-trifluoromethyl-2-pyridyl)-alpha,alpha,alpha-trifluoro-2,6-dinit ro-p-toluidine]
Disease incidence rate (Chinese cabbage soft rot [1]; [3]): 13.3 | Disease severity (Chinese cabbage soft rot [1]; [3]): 6.4 | Disease severity (Chinese cabbage soft rot [1]; 250 g ai/10 a, 150 L/10a onto cultivation soil, Musou, single replications I-III): 5.0 and 8.3 and 5.8 | Disease control value (Chinese cabbage soft rot [1]; 250 g ai/10 a, 150 L/10a onto cultivation soil, Musou): 81.7 | Disease incidence rate (Chinese cabbage soft rot [1]; 250 g ai/10 a, 150 L/10a sprayed onto cultivation soil before mulch-sheet, cultivar Musou, single replications I-III): 16.7 and 13.3 and 10.0 | Control effect on Chinese cabbage soft rot (in words) (Chinese cabbage soft rot [1]): a control effect on Chinese cabbage soft rot was observed | Disease incidence rate (Chinese cabbage soft rot [2]; [4]): 100 | Disease severity (Chinese cabbage soft rot [2]; [4]): 32.1 | Disease severity (Chinese cabbage soft rot [2]; 62.5 g ai/10 a, 150 L/10 a onto planting holes, Musou, single replications I-II): 26.7 and 37.5 | Disease control value (Chinese cabbage soft rot [2]; 62.5 g ai/10 a, 150 L/10 a onto planting holes, Musou): 28.7 | Disease incidence rate (Chinese cabbage soft rot [2]; 62.5 g ai/10 a, 150 L/10 a onto planting holes, cultivar Musou, single replications I-II): 100 | Disease incidence rate (Chinese cabbage soft rot [2]; [5]): 100 | Disease severity (Chinese cabbage soft rot [2]; [5]): 30.9 | Disease incidence rate (Chinese cabbage soft rot [2]; [6]): 100 | Disease severity (Chinese cabbage soft rot [2]; [6]): 33.3 and 28.4 | Disease control value (Chinese cabbage soft rot [2]; 125 g ai/10 a, 150 L/10 a onto planting holes, Musou): 31.3 | Disease incidence rate (Chinese cabbage soft rot [2]; [7]): 83.3 | Disease severity (Chinese cabbage soft rot [2]; [7]): 25 | Disease incidence rate (Chinese cabbage soft rot [2]; [8]): 73.3 and 93.3 | Disease severity (Chinese cabbage soft rot [2]; [8]): 20 and 30 | Disease control value (Chinese cabbage soft rot [2]; 250 g ai/10 a, 150 L/10 a onto planting holes, Musou): 44.4 | Control effect on Chinese cabbage soft rot compared with foliage application of streptomycin (in words) (Chinese cabbage soft rot [2]; Table 3 test, moderate incidence conditions, even at 62.5 g ai/10 a or 125 g ai/10 a): a higher control effect

[H]/N=C(/N)N[C@H]1[C@H](O)[C@@H](O)[C@H](O[C@@H]2O[C@@H](C)[C@](O)(C=O)[C@H]2O[C@@H]2O[C@@H](CO)[C@H](O)[C@@H](O)[C@@H]2NC)[C@@H](N/C(N)=N\[H])[C@@H]1O [Streptomycin, streptomycin]
Disease incidence rate (Chinese cabbage soft rot [1]; [9]): 60.0 | Disease severity (Chinese cabbage soft rot [1]; [9]): 37.8 | Disease control value (Chinese cabbage soft rot [1]; 1/1000 dilution, foliage application twice, Musou): 0 | Control effect on Chinese cabbage soft rot (in words) (Chinese cabbage soft rot [1]): not observed at all | Disease incidence rate (Chinese cabbage soft rot [2]; 1/1000 dilution, foliage application 300 L/10 a three times (13, 20, 27 days), Musou, single replications I-II): 100 | Disease incidence rate (Chinese cabbage soft rot [2]; [10]): 100 | Disease severity (Chinese cabbage soft rot [2]; [10]): 36.7 | Disease severity (Chinese cabbage soft rot [2]; 1/1000 dilution, foliage application three times, Musou, single replications I-II): 32.5 and 40.8 | Disease control value (Chinese cabbage soft rot [2]; 1/1000 dilution, foliage application three times, Musou): 18.4
